These results are taken from patent publication US7501430B2 (ArQule, Inc., priority 2006, dated 2009).

The experiment has as its target T1, mutant B-RAF (Homo sapiens, UniProt P15056, V600E).
T1 construct: purchased Upstate (Charlottesville, Va.)
Kind of experiment: RAF biochemical assay (MEK-1 phosphorylation, anti-phospho MEK1/2 detection). To be noted: read-out: Mutant B-RAF IC50. The essentials: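 Detection is by ELISA: after a 30 min room-temperature reaction, plate-captured GST-MEK-1 is probed with anti-phospho MEK1/2, then an AP-tagged secondary antibody with fluorescent Attophos read-out.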

pIC50: −log10 of the molar value.

T1 sequence (P15056 whole entry V600E): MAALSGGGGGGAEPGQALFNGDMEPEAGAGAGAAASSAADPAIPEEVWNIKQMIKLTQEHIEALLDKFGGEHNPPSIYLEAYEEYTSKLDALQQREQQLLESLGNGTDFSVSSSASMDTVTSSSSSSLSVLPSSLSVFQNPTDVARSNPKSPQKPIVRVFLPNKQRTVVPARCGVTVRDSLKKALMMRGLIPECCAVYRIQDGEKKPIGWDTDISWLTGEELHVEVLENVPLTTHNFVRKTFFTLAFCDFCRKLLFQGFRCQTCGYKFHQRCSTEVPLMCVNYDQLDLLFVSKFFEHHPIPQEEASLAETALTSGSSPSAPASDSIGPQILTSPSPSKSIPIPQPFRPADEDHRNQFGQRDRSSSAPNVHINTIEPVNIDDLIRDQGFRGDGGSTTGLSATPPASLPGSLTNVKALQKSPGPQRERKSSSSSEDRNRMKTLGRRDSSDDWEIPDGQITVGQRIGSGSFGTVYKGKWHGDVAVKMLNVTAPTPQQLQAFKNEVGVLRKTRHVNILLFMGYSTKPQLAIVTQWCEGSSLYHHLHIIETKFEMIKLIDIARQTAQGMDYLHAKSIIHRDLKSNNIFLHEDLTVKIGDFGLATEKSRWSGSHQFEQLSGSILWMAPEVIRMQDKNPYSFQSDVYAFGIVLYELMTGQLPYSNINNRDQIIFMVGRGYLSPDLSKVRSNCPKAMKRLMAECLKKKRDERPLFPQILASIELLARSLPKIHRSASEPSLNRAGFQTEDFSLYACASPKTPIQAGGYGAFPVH

The pIC50 is the IC50 on a negative log10 scale, so that one unit is a factor of ten. Regarding `COc1cccc(-c2nc3sccn3c2-c2ccnc(N[C@@H]3CCCN(S(=O)(=O)C4CC4)C3)n2)c1` [Example 325, N-[(3R)-1-(cyclopropylsulfonyl)piperidin-3-yl]-4-[6-(3-methoxyphenyl)imidazo[2,1-b][1,3]thiazol-5-yl]pyrimidin-2-amine], the pIC50 was 5.40.

For `COc1cccc(-c2nc3sccn3c2-c2ccnc(NC3CCN(S(C)(=O)=O)CC3)n2)c1` [Example 326, 4-[6-(3-methoxyphenyl)imidazo[2,1-b][1,3]thiazol-5-yl]-N-[1-(methylsulfonyl)piperidin-4-yl]pyrimidin-2-amine], the pIC50 was 5.40.

For the compound `COc1cccc(-c2nc3sccn3c2-c2ccnc(N[C@@H]3CCCN(C(=O)Nc4ccc(F)cc4)C3)n2)c1` [Example 327, (3R)-N-(4-fluorophenyl)-3-({4-[6-(3-methoxyphenyl)imidazo[2,1-b][1,3]thiazol-5-yl]pyrimidin-2-yl}amino)piperidine-1-carboxamide], the pIC50 was 5.40.

Turning to `COc1cccc(-c2nc3sccn3c2-c2ccnc(N[C@@H]3CCCN(C(=O)NC4CCCCC4)C3)n2)c1` [Example 328, (3R)-N-cyclohexyl-3-({4-[6-(3-methoxyphenyl)imidazo[2,1-b][1,3]thiazol-5-yl]pyrimidin-2-yl}amino)piperidine-1-carboxamide], the negative logarithm of the IC50 (pIC50) was 5.40.

As to `CCOc1ccc(NC(=O)N2CCC[C@@H](Nc3nccc(-c4c(-c5cccc(OC)c5)nc5sccn45)n3)C2)cc1` [Example 329, (3R)-N-(4-ethoxyphenyl)-3-({4-[6-(3-methoxyphenyl)imidazo[2,1-b][1,3]thiazol-5-yl]pyri-midin-2-yl}amino)piperidine-1-carboxamide], the negative logarithm of the IC50 (pIC50) is 5.40.

On to `COc1cccc(-c2nc3sccn3c2-c2ccnc(N[C@@H]3CCCN(C(=O)Nc4ccc(SC)cc4)C3)n2)c1` [Example 330, (3R)-3-({4-[6-(3-methoxyphenyl)imidazo[2,1-b][1,3]thiazol-5-yl]pyrimidin-2-yl}amino)-N-[4-(methylthio)phenyl]piperidine-1-carboxamide], for which the pIC50 was 5.40.

Consider `Oc1cccc(-c2nc3sccn3c2-c2ccnc(N[C@@H]3CCCN(CC(O)COc4ccc(Cl)cc4)C3)n2)c1` (stereo partly drawn) [Example 331, 3-{5-[2-({(3R)-1-[3-(4-chlorophenoxy)-2-hydroxypropyl]piperidin-3-yl}amino)pyrimidin-4-yl]imidazo[2,1-b][1,3]thiazol-6-yl}phenol], for which the pIC50 is 5.98.

As for `CS(=O)(=O)N1CCC(Nc2nccc(-c3c(-c4cccc(O)c4)nc4sccn34)n2)CC1` [Example 332, 3-[5-(2-{[1-(methylsulfonyl)piperidin-4-yl]amino}pyrimidin-4-yl)imidazo[2,1-b][1,3]thiazol-6-yl}phenol], the pIC50 is 8.00.

Turning to `Oc1cccc(-c2nc3occn3c2-c2ccnc(N[C@@H]3CCCNC3)n2)c1` [Example 333, 3-(5-{2-[(3R)-piperidin-3-ylamino]pyrimidin-4-yl}imidazo[2,1-b][1,3]oxazol-6-yl}phenol], the negative-log IC50 (pIC50) is 6.04.

Regarding `CC(C)NC(=O)N1CCC[C@@H](Nc2nccc(-c3c(-c4cccc(O)c4)nc4sccn34)n2)C1` [Example 334, (3R)-3-({4-[6-(3-hydroxyphenyl)imidazo[2,1-b][1,3]thiazol-5-yl]pyrimidin-2-yl}amino)-N-isopropylpiperidine-1-carboxamide], the pIC50 is 6.19.

`O=C(Nc1ccc(F)cc1)N1CCC[C@@H](Nc2nccc(-c3c(-c4cccc(O)c4)nc4sccn34)n2)C1` [Example 335, (3R)-N-(4-fluorophenyl)-3-({4-[6-(3-hydroxyphenyl)imidazo[2,1-b][1,3]thiazol-5-yl]pyrimidin-2-yl}amino)piperidine-1-carboxamide]: the pIC50 is 5.49.

As to `O=C(NS(=O)(=O)c1ccc(Cl)cc1)N1CCC(Nc2nccc(-c3c(-c4cccc(O)c4)nc4sccn34)n2)CC1` [Example 336, N-[(4-chlorophenyl)sulfonyl]-4-({4-[6-(3-hydroxyphenyl)imidazo[2,1-b][1,3]thiazol-5-yl]pyrimidin-2-yl}amino)piperidine-1-carboxamide], the pIC50 was 5.98.

Turning to `COc1cccc(-c2nc3occn3c2-c2ccnc(NC3CCNCC3)n2)c1` [Example 337, 4-[6-(3-methoxyphenyl)imidazo[2,1-b][1,3]oxazol-5-yl]-N-piperidin-4-ylpyrimidin-2-amine], the pIC50 is 5.49.

As for `COc1cccc(-c2nc3occn3c2-c2ccnc(NC3CCN(S(=O)(=O)C4CC4)CC3)n2)c1` [Example 338, N-[1-(cyclopropylsulfonyl)piperidin-4-yl]-4-[6-(3-methoxyphenyl)imidazo[2,1-b][1,3]oxazol-5-yl]pyrimidin-2-amine], the negative logarithm of the IC50 (pIC50) was 5.16.

On to `O=S(=O)(C1CC1)N1CCC(Nc2nccc(-c3c(-c4cccc(O)c4)nc4occn34)n2)CC1` [Example 339, 3-[5-(2-{[1-(cyclopropylsulfonyl)piperidin-4-yl]amino}pyrimidin-4-yl)imidazo[2,1-b][1,3]oxazol-6-yl]phenol], for which the negative logarithm of the IC50 (pIC50) is 7.34.

On to `O=C(OC[C@H](O)CO)c1ccc(S(=O)(=O)N2CCC[C@@H](Nc3nccc(-c4c(-c5cccc(O)c5)nc5sccn45)n3)C2)cc1` [Example 341, (2R)-2,3-dihydroxypropyl 4-{[(3R)-3-({4-[6-(3-hydroxyphenyl)imidazo[2,1-b][1,3]thiazol-5-yl]pyrimidin-2-yl}amino)piperidin-1-yl]sulfonyl}benzoate], for which the pIC50 is 7.48.

Consider `CS(=O)(=O)N1CCC(Nc2nccc(-c3c(-c4cccc(O)c4)nc4occn34)n2)CC1` [Example 342, 3-[5-(2-{[1-(methylsulfonyl)piperidin-4-yl]amino}pyrimidin-4-yl)imidazo[2,1-b][1,3]oxazol-6-yl]phenol], for which the negative logarithm of the IC50 (pIC50) is 6.59.

Regarding `O=C(Nc1ccc(O)cc1)N1CCC[C@@H](Nc2nccc(-c3c(-c4cccc(O)c4)nc4sccn34)n2)C1` [Example 343, (3R)-N-(4-hydroxyphenyl)-3-({4-[6-(3-hydroxyphenyl)imidazo[2,1-b][1,3]thiazol-5-yl]pyrimidin-2-yl}amino)piperidine-1-carboxamide], the pIC50 is 5.84.

As to `CSc1ccc(NC(=O)N2CCC[C@@H](Nc3nccc(-c4c(-c5cccc(O)c5)nc5sccn45)n3)C2)cc1` [Example 344, (3R)-3-({4-[6-(3-hydroxyphenyl)imidazo[2,1-b][1,3]thiazol-5-yl]pyrimidin-2-yl}amino)-N-[4-(methylthio)phenyl]piperidine-1-carboxamide], the pIC50 is 5.61.

For the compound `CS(=O)(=O)Nc1cccc(-c2nc3sccn3c2-c2ccnc(N[C@@H]3CCCN(S(=O)(=O)c4ccc(Cl)cc4)C3)n2)c1` [Example 346, N-(3-{5-[2-({(3R)-1-[(4-chlorophenyl)sulfonyl]piperidin-3-yl}amino)pyrimidin-4-yl]imidazo[2,1-b][1,3]thiazol-6-yl}phenyl)methanesulfonamide], the negative logarithm of the IC50 (pIC50) was 6.06.

With `CCNC(=O)Nc1cccc(-c2nc3sccn3c2-c2ccnc(N[C@@H]3CCCN(S(=O)(=O)c4ccc(Cl)cc4)C3)n2)c1` [Example 347, 1-(3-{5-[2-({(3R)-1-[(4-chlorophenyl)sulfonyl]piperidin-3-yl}amino)pyrimidin-4-yl]imidazo[2,1-b][1,3]thiazol-6-yl}phenyl)-3-ethyl urea], the pIC50 is 6.26.

Take `COc1cc(-c2nc3sccn3c2-c2ccnc(N[C@@H]3CCCN(S(=O)(=O)c4ccc(Cl)cc4)C3)n2)ccc1F` [Example 348, N-{(3R)-1-[(4-chlorophenyl)sulfonyl]piperidin-3-yl}-4-[6-(4-fluoro-3-methoxyphenyl)imidazo[2,1-b][1,3]thiazol-5-yl]pyrimidin-2-amine]: the pIC50 is 6.98.

`COc1cc(-c2nc3sccn3c2-c2ccnc(NC3CCN(S(=O)(=O)C4CC4)CC3)n2)ccc1F` [Example 349, N-[1-(cyclopropylsulfonyl)piperidin-4-yl]-4-[6-(4-fluoro-3-methoxyphenyl)imidazo[2,1-b][1,3]thiazol-5-yl]pyrimidin-2-amine]: the negative logarithm of the IC50 (pIC50) was 5.59.

For the compound `NC(=O)c1cccc(-c2nc3sccn3c2-c2ccnc(N[C@@H]3CCCN(S(=O)(=O)c4ccc(Cl)cc4)C3)n2)c1` [Example 350, 3-{5-[2-({(3R)-1-[(4-chlorophenyl)sulfonyl]piperidin-3-yl}amino)pyrimidin-4-yl]imidazo[2,1-b][1,3]thiazol-6-yl}benzamide], the pIC50 was 6.85.

As to `CC(C)NC(=O)N1CCC(Nc2nccc(-c3c(-c4cccc(O)c4)nc4sccn34)n2)CC1` [Example 351, 4-({4-[6-(3-hydroxyphenyl)imidazo[2,1-b][1,3]thiazol-5-yl]pyrimidin-2-yl}amino)-N-isopropylpiperidine-1-carboxamide], the pIC50 was 6.03.

Consider `CNC(=O)N1CCC(Nc2nccc(-c3c(-c4cccc(O)c4)nc4sccn34)n2)CC1` [Example 352, 4-({4-[6-(3-hydroxyphenyl)imidazo[2,1-b][1,3]thiazol-5-yl]pyrimidin-2-yl}amino)-N-methylpiperidine-1-carboxamide], for which the negative logarithm of the IC50 (pIC50) is 6.17.

`O=S(=O)(c1ccc(Cl)cc1)N1CCC[C@@H](Nc2nccc(-c3c(-c4ccc(F)c(O)c4)nc4sccn34)n2)C1` [Example 353, 5-{5-[2-({(3R)-1-[(4-chlorophenyl)suifonyl]piperidin-3-yl}amino)pyrimidin-4-yl]imidazo[2,1-b][1,3]thiazol-6-yl}-2-fluorophenol]: the negative logarithm of the IC50 (pIC50) was 8.52.

`O=S(=O)(C1CC1)N1CCC(Nc2nccc(-c3c(-c4ccc(F)c(O)c4)nc4sccn34)n2)CC1` [Example 354, 5-[5-(2-{[1-(cyclopropylsulfonyl)piperidin-4-yl]amino}pyrimidin-4-yl)imidazo[2,1-b][1,3]thiazol-6-yl]-2-fluorophenol]: the pIC50 was 10.52.

As for `CCCNC(=O)N1CCC(Nc2nccc(-c3c(-c4cccc(O)c4)nc4sccn34)n2)CC1` [Example 355, 4-({4-[6-(3-hydroxyphenyl)imidazo[2,1-b][1,3]thiazol-5-yl]pyrimidin-2-yl}amino)-N-propylpiperidine-1-carboxamide], the negative-log IC50 (pIC50) is 5.75.
